Consider 29 compounds from US6962929B2, “Pentafluorobenzenesulfonamides and analogs” (Tularik Inc., priority 1996, dated 2005).

SMILES strings stand for the structures. pIC50: −log10 of the molar value.

In series [1] the test system is HeLa cells. The experiment in a line: Inhibition of in vitro growth of HeLa cells (Alamar Blue uptake). The settings on record: concentration required to inhibit by 50% the uptake of Alamar Blue by HeLa cell cultures. Format: cell-based, human. As to the method: Compounds were evaluated for their ability to inhibit in vitro the growth of HeLa cells, an immortal cell line derived from a human cervical carcinoma commonly used to evaluate the cytotoxicity of potential therapeutic agents. The following data reflect the cytotoxicity of selected examples of the present invention. The values given represent the concentration of test compound required to inhibit by 50% the uptake of Alamar Blue (Biosource International, Camarillo, Calif.) by HeLa cell cultures, which correlates directly with the overall levels of cellular metabolism in the culture, and is generally accepted as an appropriate marker of cell growth. The test was conducted according to the method of S. A. Ahmed et al. (1994) J. Immunol. Methods 170: 211-224.
(In general: The colour change of resazurin is a common sign of viable cells or microbes.)

In series [2] the test system is tubulin. The series can be described thus: Irreversible labeling of cellular protein by tritiated compounds in MCF7 cells. The settings on record: tritiated form; human breast carcinoma MCF7 cells. It is filed as binding. The source says: Preferred compounds display specific toxicity to various types of cells. Certain compounds and compositions of the present invention exert their cytotoxic effects by interacting with cellular tubulin. For certain preferred compounds and compositions of the present invention, that interaction is covalent and irreversible. […] This protein is a key component of microtubules, which constitute the cytoskeleton and also play critical roles in many other aspects of the cell's physiology, including cell division. The labeling of tubulin by the subject preferred compounds is also shown to be dose-dependent. The site of covalent binding on tubulin is identified as Cysteine-239 on the β-tubulin chain. The same Cys-239 residue is selectively covalently modified when present in a wide variety of Cys-239 containing β-tubulin petides (e.g. Ser-234 to Met-267) provided in vitro or in vivo. One embodiment of these preferred compounds provides the binding mechanism shown in Scheme IV, namely, displacement of the para-fluorine atom by the thiol group of Cys-239.

As a reminder, the melting point is the temperature, or range, at which the solid turns liquid. As for `COc1ccc(N(CCCCCO)S(=O)(=O)c2c(F)c(F)c(F)c(F)c2F)cc1O` [Example 37, 2-Hydroxy-1-methoxy-4-(N-(5-hydroxypentyl)-pentafluorophenylsulfonamido)benzene], the melting point was 118 °C.
Same read-out and setting: the same measure for `COc1ccc(N(CCCCO)S(=O)(=O)c2c(F)c(F)c(F)c(F)c2F)cc1` [Example 56, 1-(N-(4-hydroxybutyl)pentafluorophenylsulfonamido)-4-methoxybenzene]: 88 to 90 °C; for `COc1ccc(N(CCC(O)CO)S(=O)(=O)c2c(F)c(F)c(F)c(F)c2F)cc1` (stereo not drawn) [Example 54, 1-(N-(3,4-Dihydroxybutyl)pentafluorophenylsulfonamido)-4-methoxybenzene]: 126 to 128 °C; for `COc1ccc(N(CC(O)CO)S(=O)(=O)c2c(F)c(F)c(F)c(F)c2F)cc1` (stereo not drawn) [Example 53, 1-(N-(2,3-Dihydroxypropyl)pentafluorophenylsulfonamido)-4-methoxybenzene]: 130 to 131 °C.
Still for that read-out and setting: the value for `C=CCN(c1ccc(OC)cc1)S(=O)(=O)c1c(F)c(F)c(F)c(F)c1F` [Example 50, 4-Methoxy-1-(N-(2-propenyl)pentafluorophenylsulfonamido)benzene] was 59 to 60 °C.
As usually defined, the pIC50 is −log10 of the IC50, conventionally taken in molar units. In the case of `O=S(=O)(Nc1ccc2c(c1)OCO2)c1c(F)c(F)c(F)c(F)c1F` [Example 4, 1,2-Methylenedioxy-4-pentafluorophenylsulfonamidobenzene], the pIC50 in series [1] (Homo sapiens) is 5.00.
`[3H]c1cc(OC)c(F)cc1NS(=O)(=O)c1c(F)c(F)c(F)c(F)c1F` [Example 72, 4-[3H]-1-Fluoro-2-methoxy-5-pentafluorosulfonamidobenzene]: the “labeling of cellular protein” value in series [2] is listed as “irreversible labeling of only one detectable cellular protein, which was found to be tubulin”.
As to `CCN(CC)c1ccc(NS(=O)(=O)c2c(F)c(F)c(F)c(F)c2F)cc1` [Example 12, 4-(N,N-Diethylamino)-1-pentafluorophenylsulfonamidobenzene], in series [1] (Homo sapiens), the pIC50 is 6.82.
Regarding `CN(C)c1ccc(N(C)S(=O)(=O)c2c(F)c(F)c(F)c(F)c2F)cc1` [Example 17, 4-(N,N-Dimethylamino)-1-(N-methylpentafluorophenylsulfonanido)benzene], in series [1] (Homo sapiens), the pIC50 is 5.00.
`COc1ccc(N(C)S(=O)(=O)c2c(F)c(F)c(F)c(F)c2F)cc1F` [Example 30, 2-Fluoro-1-methoxy-4-(N-methylpentafluorophenylsulfonamido)benzene] had a pIC50 in series [1] (Homo sapiens) of 5.82.
In turn, `O=S(=O)(Nc1cccc(O)c1)c1c(F)c(F)c(F)c(F)c1F` [Example 9, 3-Hydroxy-1-pentafluorophenylsulfonamidobenzene] showed a pIC50 in series [1] (Homo sapiens) of 6.00.
Compound `COc1ccc(NS(=O)(=O)c2c(F)c(F)c(F)c(F)c2F)cc1[N+](=O)[O-]` [Example 58, 4-Methoxy-3-nitro-1-pentafluorophenylsulfonamidobenzene] yielded a melting point of 95 to 97 °C.
The compound `COc1ccc(NS(=O)(=O)c2c(F)c(F)c(F)c(F)c2F)cc1Br` [Example 31, 2-Bromo-1-methoxy4-pentafluorophenylsulfonamidobenzene] gave a pIC50 in series [1] (Homo sapiens) of 6.30.
Take `O=S(=O)(Nc1ccc(Cl)nc1)c1c(F)c(F)c(F)c(F)c1F` [Example 36, 2-Chloro-5-pentafluorophenylsulfonamidopyridine]: the melting point lay in the range of 144 to 145 °C.
On to `CN(C)c1ccc(NS(=O)(=O)c2c(F)c(F)c(F)c(F)c2F)cc1` [Example 1, 4-(N,N-Dimethylamino)-1-pentafluorophenylsulfonamidobenzene], for which the pIC50 in series [1] (Homo sapiens) is > 7.30.
On the same count and under the same terms, the same measure for `O=S(=O)(Nc1ccc2[nH]ncc2c1)c1c(F)c(F)c(F)c(F)c1F` [Example 15, 5-Pentafluorophenylsulfonamidoindazole]: 6.00.
`COc1ccc(N(CCCC(O)CO)S(=O)(=O)c2c(F)c(F)c(F)c(F)c2F)cc1` (stereo not drawn) [Example 55, 1-(N-(4,5-Dihydroxypentyl)pentafluorophenylsulfonamido)-4-methoxybenzene] registered a melting point of 116 to 118 °C.
As for `COc1ccc(NS(=O)(=O)c2c(F)c(F)c(F)c(F)c2F)cc1F` [Example 7, 2-Fluoro-1-methoxy-4-pentafluorosulfonamidobenzene], the pIC50 in series [1] (Homo sapiens) was > 7.30.
With `COc1ccc(NS(=O)(=O)c2c(F)c(F)c(F)c(F)c2F)cc1C(F)(F)F` [Example 49, 4-Methoxy-1-pentafluorophenylsulfonamido-3-trifluoromethylbenzene], the melting point is 121 to 123 °C.
The same measure, in the same setting: the same measure for `C=CCCN(c1ccc(OC)cc1)S(=O)(=O)c1c(F)c(F)c(F)c(F)c1F` [Example 51, 1-(N-(3-Butenyl)pentafluorophenylsulfonamido)-4-methoxybenzene]: 64 to 66 °C.
Regarding `CN(C)c1cccc(NS(=O)(=O)c2c(F)c(F)c(F)c(F)c2F)c1` [Example 2, 3-(N,N-Dimethylamino)-1-pentafluorophenylsulfonamidobenzene], the pIC50 in series [1] (Homo sapiens) is 6.82.
Compound `O=S(=O)(Nc1ccc2c(c1)OCCO2)c1c(F)c(F)c(F)c(F)c1F` [Example 3, 1,2-Ethylenedioxy-4-pentafluorophenylsulfonamidobenzene] gave a pIC50 in series [1] (Homo sapiens) of 5.82.
`COc1ccc(N(CCCCCO)S(=O)(=O)c2c(F)c(F)c(F)c(F)c2F)cc1` [Example 57, 4-Methoxy-1-(N-(5-hydroxypentyl)pentafluorophenylsulfonamido)benzene] gave a melting point of 96 to 97 °C.
In turn, `COc1ccc(NS(=O)(=O)c2c(F)c(F)c(F)c(F)c2F)cc1Cl` [Example 32, 2-Chloro-1-methoxy-4-pentafluorophenylsulfonamidobenzene] had a pIC50 in series [1] of 7.00.
As to `COc1ccc(NS(=O)(=O)c2c(F)c(F)c(F)c(F)c2F)cc1` [Example 8, 4-Methoxy-1-pentafluorophenylsulfonamidobenzene], the melting point lay within 102 to 103 °C. The pIC50 in series [1] (Homo sapiens) was > 7.30.
`O=S(=O)(Nc1ccc(N2CCOCC2)cc1)c1c(F)c(F)c(F)c(F)c1F` [Example 25, 4-(1-Morpholino)-1-pentafluorophenylsulfonamidobenzene] showed a pIC50 in series [1] (Homo sapiens) of 5.00.
In the case of `COc1ccc(NS(=O)(=O)c2c(F)c(F)c(F)c(F)c2F)cc1O` [Example 6, 2-Hydroxy-1-methoxy-4-pentafluorophenylsulfonamidobenzene], the pIC50 in series [1] (Homo sapiens) is > 7.30.
The compound `COc1ccc(NS(=O)(=O)c2c(F)c(F)c(F)c(F)c2F)cc1N` [Example 59, 3-Amino-4-methoxy-1-pentafluorophenylsulfonamidobenzene] displayed a melting point of 142 to 143 °C.
The same measure, in the same setting: the value for `COc1cc(Br)c(NS(=O)(=O)c2c(F)c(F)c(F)c(F)c2F)cc1F` [Example 41, 1-Bromo-4-fluoro-5-methoxy-2-pentafluorophenylsulfonamidobenzene] was 109 °C.
